For data set [1] the following is noted: cited from earlier work.
A short description of data set [2]: Powder properties of amlodipine mesylate monohydrate crystals (particle size distribution, carr index, angle of repose, bulk density). The settings on record: API crystals. Type of data set: physicochemical. The text has this:
The Carr index and angle of repose are indications of the flowability of a powdery material. To a certain extent, the Carr index is an indication of the compressibility of a powdery material. Carr index=(tap density-bulk density)/tap density*100%.
The angle of repose (α) refers to the maximum angle formed between the free inclined plane and the horizontal plane in a powder piled layer. The smaller the angle of repose (α) is, the better the flowability is. It is generally believed that the powder can flow freely if the a is less than 30°, and the flowability of the power is acceptable if the a is between 30° and 40°, while the power may have poor flowability if the a is greater than 40°.
The particle size of crystals can be measured by a Malvern Lazer Particle Analyzer which is a dry method. The particle size is related to the fluidity of a powder, and generally the larger the particle size is and the more concentrated the particle distribution is, the better the fluidity is. During the crystallization process, an average particle size (D50) of less than 15 μm may lead to difficulty in filtration and drying and easy to carry and absorb more impurities. Furthermore, the uniformity of particle size distribution can also have an impact on the properties of APIs.
(§1) Determination of other parameters of API or tablets of amlodipine mesylate monohydrate regarding quality such as water content, angle of repose, carr index, particle size, bulk density, and the like, is conduct with conventional methods well known to those skilled in the art.

The nature of data set [3]: Accelerated test of the API (sealed in aluminum-plastic composite film bags, 40° C., 75% RH). Type of data set: physicochemical. The following applies: mesylate monohydrate.
From the text: as §1

On to `CCOC(=O)C1=C(COCCN)NC(C)=C(C(=O)OC)C1c1ccccc1Cl` (stereo not shown) [Amlodipine free base, Amlodipine], for which the “water solubility” value in data set [1] is on record as “poor water solubility”.
amlodipine mesylate monohydrate: the “water solubility” value in data set [1] is “easily soluble in water”. Also, in data set [1] (in water), the “solubility relative to that of amlodipine besylate” value was “more than 10 time”.
For the molecule “amlodipine mesylate monohydrate [Comparative Example 1, reference compound]”, in data set [2], the Bulk density came out at 0.22 g/mL; the Carr index turned out to be 41%; the angle of repose was determined as 46 °; the “fluidity (words, from carr index and angle of repose)” value was “poor fluidity”. In addition, in data set [2], the “particle size distribution D10” value stood at 1.73 μm, the “particle size distribution D50” value was found to be 6.70 μm and the “particle size distribution D90” value was 16.4 μm. For the same molecule, in data set [3] (0 month), the Average particle size is 6.70 μm, the Bulk density came out at 0.22 g/mL, the Carr index stood at 41% and the Character entry was “White like”. In data set [3] (0 month), the Content was 99.89%, the Related substance was 0.12% and the Water content was 3.49%. In data set [3] (3 months), this molecule gave an Average particle size of 5.96 μm, a Bulk density of 0.25 g/mL, a Carr index of 42% and a Content of 99.81%. Besides, in data set [3] (3 months), the Related substance is given as 0.18% and the Water content turned out to be 3.48%. Further, in data set [3] (6 months), the Average particle size turned out to be 6.93 μm, the Bulk density came out at 0.26 g/mL, the Carr index stood at 43% and the Character entry was “Yellow”. In data set [3] (6 months), this molecule returned a Content of 99.71%, a Related substance of 0.23% and a Water content of 3.51%.
In the case of “amlodipine mesylate monohydrate [Comparative Example 2, reference compound]”, in data set [2], the Bulk density turned out to be 0.26 g/mL; the Carr index was determined as 42%; the angle of repose was 45 °; the “fluidity (words, from carr index and angle of repose)” value is given as “poor fluidity”. For the same molecule, in data set [2], the “particle size distribution D10” value amounted to 1.62 μm, the “particle size distribution D50” value is on record as 6.22 μm and the “particle size distribution D90” value is 14.1 μm. For the same molecule, in data set [3] (0 month), the Average particle size is 6.22 μm, the Bulk density is 0.26 g/mL, the Carr index was found to be 42% and the Character result is on record as “White like”. In data set [3] (0 month), this molecule gave a Content of 99.82%, a Related substance of 0.11% and a Water content of 3.57%. For the same molecule, in data set [3] (3 months), the Average particle size worked out at 5.89 μm, the Bulk density is 0.27 g/mL, the Carr index came to 41% and the Character result is listed as “Light yellow”. In data set [3] (3 months), this molecule gave a Content of 99.71%, a Related substance of 0.18% and a Water content of 3.52%. Further, in data set [3] (6 months), the Average particle size turned out to be 6.74 μm, the Bulk density is listed as 0.25 g/mL, the Carr index is listed as 44% and the Character result is given as “Yellow solid”. In data set [3] (6 months), this molecule came in with a Content of 99.62%, a Related substance of 0.26% and a Water content of 3.53%.
Turning to “amlodipine mesylate monohydrate [Example 1]”, in data set [2], the Bulk density is recorded as 0.32 g/mL; the Carr index was 23%; the angle of repose is listed as 29 °; the “fluidity (words, from carr index and angle of repose)” value is “good fluidity”. In data set [2], the “particle size distribution D10” value came to 33.9 μm, the “particle size distribution D50” value amounted to 70.2 μm and the “particle size distribution D90” value is 121 μm. In addition, in data set [3] (0 month), the Average particle size stood at 70.2 μm, the Bulk density was determined as 0.32 g/mL, the Carr index is reported as 23% and the Character entry was “White solid”. Also, in data set [3] (0 month), the Content turned out to be 99.92%, the Related substance came out at 0.07% and the Water content came to 3.51%. In data set [3] (3 months), the Average particle size is listed as 70.6 μm, the Bulk density is listed as 0.31 g/mL, the Carr index is recorded as 23% and the Character entry is “White solid”. Moreover, in data set [3] (3 months), the Content came to 99.78%, the Related substance is 0.07% and the Water content is on record as 3.49%. In addition, in data set [3] (6 months), the Average particle size is 69.5 μm, the Bulk density amounted to 0.33 g/mL, the Carr index is on record as 24% and the Character entry is listed as “White solid”. In addition, in data set [3] (6 months), the Content is listed as 99.71%, the Related substance was found to be 0.08% and the Water content worked out at 3.50%.
Consider “amlodipine mesylate monohydrate [Example 2]”, for which, in data set [2], the Bulk density came to 0.33 g/mL; the Carr index is 23%; the angle of repose was 31 °; the “fluidity (words, from carr index and angle of repose)” value was “good fluidity”. In data set [2], the “particle size distribution D10” value is on record as 34.8 μm, the “particle size distribution D50” value amounted to 72.1 μm and the “particle size distribution D90” value was found to be 126 μm. Also, in data set [3] (0 month), the Average particle size is recorded as 72.1 μm, the Bulk density is given as 0.33 g/mL, the Carr index is on record as 23% and the Character entry was “White solid”. Moreover, in data set [3] (0 month), the Content amounted to 99.95%, the Related substance came to 0.06% and the Water content was found to be 3.51%. In data set [3] (3 months), the Average particle size is on record as 71.8 μm, the Bulk density was 0.32 g/mL, the Carr index came to 24% and the Character entry was “White solid”. Moreover, in data set [3] (3 months), the Content is 99.81%, the Related substance stood at 0.07% and the Water content is 3.52%. In data set [3] (6 months), the Average particle size was determined as 72.4 μm, the Bulk density is 0.32 g/mL, the Carr index is reported as 24% and the Character result is recorded as “White solid”. In data set [3] (6 months), this molecule yielded a Content of 99.73%, a Related substance of 0.08% and a Water content of 3.49%.
Regarding “amlodipine mesylate monohydrate [Example 3]”, in data set [2], the Bulk density is recorded as 0.30 g/mL; the Carr index turned out to be 24%; the angle of repose was determined as 33 °; the “fluidity (words, from carr index and angle of repose)” value is on record as “good fluidity”. Besides, in data set [2], the “particle size distribution D10” value came out at 32.9 μm, the “particle size distribution D50” value is given as 70.1 μm and the “particle size distribution D90” value was 124 μm. For the same molecule, in data set [3] (0 month), the Average particle size was determined as 70.1 μm, the Bulk density is listed as 0.30 g/mL, the Carr index came to 24% and the Character result is recorded as “White solid”. Further, in data set [3] (0 month), the Content stood at 99.93%, the Related substance is 0.07% and the Water content is 3.50%. In data set [3] (3 months), the Average particle size is given as 69.5 μm, the Bulk density turned out to be 0.31 g/mL, the Carr index is listed as 23% and the Character entry is given as “White solid”. Also, in data set [3] (3 months), the Content came out at 99.82%, the Related substance is given as 0.08% and the Water content was found to be 3.48%. In data set [3] (6 months), the Average particle size worked out at 71.4 μm, the Bulk density is 0.32 g/mL, the Carr index is recorded as 25% and the Character result is “White solid”. In data set [3] (6 months), this molecule yielded a Content of 99.71%, a Related substance of 0.10% and a Water content of 3.49%.
For “amlodipine mesylate monohydrate [Experimental Example 1]”, in data set [2], the “particle size distribution D10” value amounted to 43 μm, the “particle size distribution D50” value is given as 92 μm and the “particle size distribution D90” value is on record as 151 μm.
As for “amlodipine mesylate monohydrate [Experimental Example 2]”, in data set [2], the “particle size distribution D10” value was determined as 32 μm, the “particle size distribution D50” value is given as 68 μm and the “particle size distribution D90” value is given as 117 μm.
Regarding “amlodipine mesylate monohydrate [Experimental Example 3]”, in data set [2], the “particle size distribution D10” value was found to be 34 μm, the “particle size distribution D50” value is 69 μm and the “particle size distribution D90” value amounted to 120 μm.

Values taken from US12435038B2 (KUNMING SINOWAY NATURAL PHARMACEUTICALS CO., LTD., priority 2019, dated 2025).
